# Laboratory results as given in US10278942B2 (PELOTON THERAPEUTICS, INC., priority 2015, dated 2019).
# Like-named read-outs stand apart in the source and are kept apart here.
# Columns and labels:
# [1] = molecular target: T1, HIF-2α HIS TAG-PASB Domain (Homo sapiens, UniProt Q99814); test: HIF-2α Scintillation Proximity Assay (SPA); type: binding
# T1 construct: 100 nM HIF-2α HIS TAG-PASB Domain
# How it was run: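 IC50 values rest on percent inhibition, where the sample signal is scaled between high and low controls. Wells contain about 100 μL: compound dispensed as 2 μL of DMSO solution, 88 μL protein-probe mix and 10 μL of beads.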
# [2] = system: 786-O-Hif-Luc cells; test: Luciferase Assay (HIF responsive elements reporter); conditions: read-out: Mean Luciferase EC50 (nM), 786-O-Hif-Luc cells
# Description: A pool of infected cells were then selected against 2 μg/mL of puromycin (P8833, Sigma) for 10 days followed by limited dilution to select single clones. […] Each concentration was tested in triplicate. After about 24 hours, luciferase activity was determined using ONE-Glo Luciferase Assay Reagent (E6110, Promega) following the manufacturer's recommended procedure. EC50 were calculated using Dotmatics software.
# [3] = read-out: Scintillation Proximity Assay IC50
# [4] = Scintillation Proximity Assay IC50 (nM)
# T1 sequence (Q99814 240-350 limits assumed): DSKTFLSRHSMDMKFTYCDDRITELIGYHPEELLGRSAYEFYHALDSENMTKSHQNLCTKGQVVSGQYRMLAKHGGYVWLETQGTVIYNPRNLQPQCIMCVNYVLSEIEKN
Compound,"IC50 [1, 3]",EC50 [2],"IC50 [1, 4]"
O=S(=O)(c1ccc(Oc2cc(F)cc(Cl)c2)c2c1[C@H](O)CC2)C(F)(F)F [Compound 56],< 50 nM,50 to 249 nM,–
O[C@@H]1CCc2c(Oc3cc(F)cc(F)c3)ccc(C(F)(F)F)c21 [Compound 58],< 50 nM,50 to 249 nM,–
O=S(=O)(CF)c1ccc(Oc2cc(F)cc(F)c2)c2c1C(O)CC2 (centres unmarked) [Compound 59],< 50 nM,50 to 249 nM,–
N#Cc1cc(F)cc(Oc2ccc(S(=O)(=O)CF)c3c2CC[C@H]3O)c1 [Compound 62],< 50 nM,50 to 249 nM,–
O=S(=O)(CF)c1ccc(Oc2cc(F)cc(Cl)c2)c2c1[C@H](O)C(F)(F)C2 [Compound 65],< 50 nM,< 50 nM,–
N=S(=O)(c1ccc(Oc2cc(F)cc(Cl)c2)c(Br)c1Cl)C(F)(F)F (centres unmarked) [Compound 75],50 to 249 nM,> 1000 nM,–
N#Cc1cccc(Oc2ccc(S(=O)(=O)C(F)F)c(CO)c2Br)c1 [Compound 81],250 to 1000 nM,250 to 1000 nM,–
NCc1c(S(=O)(=O)C(F)F)ccc(Oc2cc(F)cc(Cl)c2)c1Br [Compound 85],–,> 1000 nM,> 1000 nM
CS(=O)(=O)c1ccc(Oc2cc(F)cc(Cl)c2)c2c1C(O)CC2 (centres unmarked) [Compound 90],50 to 249 nM,250 to 1000 nM,–
CCS(=O)(=O)c1ccc(Oc2cc(F)cc(Cl)c2)c2c1C(O)CC2 (centres unmarked) [Compound 91],250 to 1000 nM,> 1000 nM,–
CS(=O)(=O)c1ccc(Oc2cc(F)cc(Cl)c2)c(C(F)F)c1C#N [Compound 92],< 50 nM,250 to 1000 nM,–
CS(=O)(=O)c1ccc(Oc2cc(F)cc(F)c2)c(C(F)F)c1C#N [Compound 93],50 to 249 nM,250 to 1000 nM,–
CS(=O)(=O)c1ccc(Oc2cc(F)cc(C#N)c2)c(C(F)F)c1C#N [Compound 94],50 to 249 nM,250 to 1000 nM,–
N#Cc1cc(F)cc(Oc2ccc(S(=O)(=O)C(F)(F)F)c(C#N)c2Br)c1 [Compound 100],50 to 249 nM,> 1000 nM,–
O=Cc1c(S(=O)(=O)C(F)(F)F)ccc(Oc2cc(F)cc(Cl)c2)c1Br [Compound 101],< 50 nM,250 to 1000 nM,–
CC(O)c1c(S(=O)(=O)C(F)(F)F)ccc(Oc2cc(F)cc(Cl)c2)c1Br (centres unmarked) [Compound 103],250 to 1000 nM,> 1000 nM,–
CC(=O)c1c(S(=O)(=O)C(F)(F)F)ccc(Oc2cc(F)cc(Cl)c2)c1Br [Compound 104],250 to 1000 nM,> 1000 nM,–
O=S(=O)(c1ccc(Oc2cc(F)cc(Cl)c2)c(Br)c1/C=N/O)C(F)(F)F [Compound 107],50 to 249 nM,250 to 1000 nM,–
O=S(=O)(c1ccc(Oc2cc(F)cc(Cl)c2)c(Br)c1CNCc1ccccc1)C(F)(F)F [Compound 110],> 1000 nM,> 1000 nM,–
N#Cc1c(S(=O)(=O)C(F)(F)F)ccc(Oc2cc(F)cc(Cl)c2)c1Cl [Compound 111],< 50 nM,> 1000 nM,–
O=Cc1c(S(=O)(=O)C(F)(F)F)ccc(Oc2cc(F)cc(Cl)c2)c1Cl [Compound 112],< 50 nM,250 to 1000 nM,–
O=S(=O)(c1ccc(Oc2cc(F)cc(Cl)c2)c(Cl)c1CNCCF)C(F)(F)F [Compound 114],> 1000 nM,> 1000 nM,–
CS(=O)(=O)c1ccc(Oc2cncc(Cl)c2)c2c1[C@H](O)C(F)(F)C2 [Compound 115],250 to 1000 nM,250 to 1000 nM,–

Compound,"IC50 [1, 3]",EC50 [2],"IC50 [1, 4]"
N#Cc1cccc(Oc2ccc(S(=O)(=O)C(F)(F)F)cc2Br)c1 [Compound 117],50 to 249 nM,> 1000 nM,–
N#Cc1cc(F)cc(Oc2ccc(S(=O)(=O)C(F)(F)F)cc2Br)c1 [Compound 118],50 to 249 nM,> 1000 nM,–
N#Cc1cc(F)cc(Oc2ccc(S(=O)(=O)C(F)(F)F)cc2C#N)c1 [Compound 120],250 to 1000 nM,> 1000 nM,–
O=S(=O)(c1ccc(Oc2cc(F)cc(Cl)c2)c(Br)c1)C(F)F [Compound 131],–,> 1000 nM,250 to 1000 nM
N#Cc1cc(F)cc(Oc2ccc(S(=O)(=O)C(F)F)cc2C#N)c1 [Compound 134],250 to 1000 nM,> 1000 nM,–
Cc1cc(S(=O)(=O)C(F)F)ccc1Oc1cc(F)cc(Cl)c1 [Compound 135],250 to 1000 nM,> 1000 nM,–
Cc1cc(S(=O)(=O)C(F)F)ccc1Oc1cc(F)cc(C#N)c1 [Compound 136],50 to 249 nM,> 1000 nM,–
Cc1c(Oc2cc(F)cc(Cl)c2)ccc(S(=O)(=O)C(F)(F)F)c1Br [Compound 140],< 50 nM,> 1000 nM,–
Cc1c(Oc2cc(F)cc(Cl)c2)ccc(S(=O)(=O)C(F)(F)F)c1Cl [Compound 143],< 50 nM,> 1000 nM,–
Cc1c(Oc2cc(F)cc(C#N)c2)ccc(S(=O)(=O)C(F)(F)F)c1Cl [Compound 144],< 50 nM,250 to 1000 nM,–
Cc1c(Oc2cc(F)cc(C#N)c2)ccc(S(=O)(=O)C(F)(F)F)c1C=O [Compound 145],50 to 249 nM,250 to 1000 nM,–
Cc1c(Oc2cc(F)cc(C#N)c2)ccc(S(=O)(=O)C(F)(F)F)c1CO [Compound 146],50 to 249 nM,250 to 1000 nM,–
COC(=O)/C=C/c1c(S(=O)(=O)C(F)(F)F)ccc(Oc2cc(F)cc(C#N)c2)c1C [Compound 147],50 to 249 nM,> 1000 nM,–
CCOC(=O)/C=C/c1c(S(=O)(=O)C(F)(F)F)ccc(Oc2cc(F)cc(C#N)c2)c1C [Compound 148],50 to 249 nM,> 1000 nM,–
Cc1nnc(/C=C/c2c(S(=O)(=O)C(F)(F)F)ccc(Oc3cc(F)cc(C#N)c3)c2C)o1 [Compound 151],> 1000 nM,> 1000 nM,–
CS(=O)(=O)c1ccc(Oc2cc(F)cc(C#N)c2)c(C#N)c1Cl [Compound 152],250 to 1000 nM,> 1000 nM,–
O=S(=O)(c1ccc(Oc2ccc(F)c(Cl)c2)c2c1[C@H](O)CC2)C(F)F [Compound 157],250 to 1000 nM,> 1000 nM,–
CS(=O)(=O)c1ccc(Oc2cc(F)cc(Cl)c2)c2c1[C@H](O)C(F)(F)C2 [Compound 160],< 50 nM,< 50 nM,–
CS(=O)(=O)c1ccc(Oc2cccc(C#N)c2)c2c1[C@H](O)C(F)(F)C2 [Compound 162],50 to 249 nM,50 to 249 nM,–
O=S(=O)(c1ccc(Oc2cc(F)cc(F)c2)c(Cl)c1CO)C(F)F [Compound 168],< 50 nM,250 to 1000 nM,–
O=S(=O)(c1ccc(Oc2cc(Cl)cc(Cl)c2)c(Br)c1)C(F)(F)F [Compound 172],250 to 1000 nM,> 1000 nM,–
O=C1c2c(S(=O)(=O)C(F)F)ccc(Oc3cncc(Cl)c3)c2CC1(F)F [Compound 182],250 to 1000 nM,> 1000 nM,–
O=S(=O)(CF)c1ccc(Oc2cncc(Cl)c2)c2c1[C@H](O)C(F)(F)C2 [Compound 187],50 to 249 nM,50 to 249 nM,–

Compound,"IC50 [1, 3]",EC50 [2],"IC50 [1, 4]"
CS(=N)(=O)c1ccc(Oc2cc(F)cc(F)c2)c2c1C(O)CC2 (centres unmarked) [Compound 190],250 to 1000 nM,> 1000 nM,–
CS(=N)(=O)c1ccc(Oc2cc(F)cc(F)c2)c2c1C(O)C(F)(F)C2 (centres unmarked) [Compound 192],50 to 249 nM,250 to 1000 nM,–
O=S(=O)(c1ccc(Oc2ccc(F)c(Br)c2)c2c1[C@H](O)C(F)(F)C2)C(F)F [Compound 194],< 50 nM,250 to 1000 nM,–
O=C1c2c(S(=O)(=O)C(F)F)ccc(Oc3ccc(F)c(F)c3)c2CC1(F)F [Compound 195],50 to 249 nM,> 1000 nM,–
Cc1cc(Oc2ccc(S(=O)(=O)C(F)F)c3c2CC(F)(F)[C@H]3O)ccc1F [Compound 198],< 50 nM,250 to 1000 nM,–
N#Cc1cc(Oc2ccc(S(=O)(=O)C(F)F)c3c2CC(F)(F)[C@H]3O)ccc1F [Compound 200],< 50 nM,50 to 249 nM,–
Cc1cncc(Oc2ccc(S(C)(=O)=O)c3c2CC(F)(F)[C@H]3O)n1 [Compound 201],< 50 nM,> 1000 nM,–
N#Cc1cc(F)cc(Oc2ccc(S(=O)(=O)C(F)F)c3c2CC(F)(F)[C@H]3N)c1 [Compound 207],250 to 1000 nM,250 to 1000 nM,–
N#Cc1cc(F)cc(Oc2ccc(S(=O)(=O)C3CCC3)c3c2CC(F)(F)[C@H]3O)c1 [Compound 209],250 to 1000 nM,> 1000 nM,–
O=S(=O)(c1ccc(Oc2ccc(F)cc2)c2c1C(O)CC2)C(F)(F)F (centres unmarked) [Compound 212],250 to 1000 nM,> 1000 nM,–
Cc1cc(Oc2cc(F)cc(C#N)c2)c2c(c1S(C)(=O)=O)C(O)C(F)(F)C2 (centres unmarked) [Compound 213],250 to 1000 nM,250 to 1000 nM,–
O=S(=O)(c1ccc(Oc2ccc(F)c(F)c2)c2c1C(O)CC2)C(F)(F)F (centres unmarked) [Compound 214],50 to 249 nM,> 1000 nM,–
O=S(=O)(c1ccc(Oc2ccc(F)c(Cl)c2)c2c1C(O)CC2)C(F)(F)F (centres unmarked) [Compound 218],250 to 1000 nM,> 1000 nM,–
N#Cc1cncc(Oc2ccc(S(=O)(=O)C(F)(F)F)c3c2CCC3O)c1 (centres unmarked) [Compound 220],250 to 1000 nM,> 1000 nM,–
O=S(=O)(c1ccc(Oc2ccc(F)c(Cl)c2)c2c1[C@H](O)C(F)(F)C2)C(F)(F)F [Compound 221],< 50 nM,< 50 nM,–
O=S(=O)(CF)c1ccc(Oc2cccc3sccc23)c2c1C(O)C(F)(F)C2 (centres unmarked) [Compound 242],50 to 249 nM,250 to 1000 nM,–
O=S(=O)(c1ccc(Oc2cccc3[nH]ncc23)c2c1C(O)C(F)(F)C2)C(F)(F)F (centres unmarked) [Compound 243],250 to 1000 nM,250 to 1000 nM,–
O=S(=O)(c1ccc(Oc2c(F)ccc3[nH]ncc23)c2c1C(O)C(F)(F)C2)C(F)(F)F (centres unmarked) [Compound 244],250 to 1000 nM,> 1000 nM,–
CS(=O)(=O)c1ccc(Oc2cc(C#N)cc(C(F)F)c2)c2c1C(O)CC2 (centres unmarked) [Compound 249],250 to 1000 nM,> 1000 nM,–
N#Cc1cc(F)cc(Oc2ccc(S(=O)(=O)CCO)c3c2CC(F)(F)C3O)c1 (centres unmarked) [Compound 250],> 1000 nM,> 1000 nM,–
N#Cc1cncc(Oc2ccc(S(N)(=O)=O)c3c2CC(F)(F)[C@H]3O)c1 [Compound 253],> 1000 nM,> 1000 nM,–
